In patent publication US20210386367A1, “DEVICES AND SYSTEMS FOR GASTROINTESTINAL MICROBIOME DETECTION AND MANIPULATION” (Progenity, Inc., priority 2018, published 2021):
In brackets after ≈: the same amount, converted by molar mass. Read-outs that look alike come from different tables or passages of the source.

Assays:
E. coli ATCC 25922 = conditions: cited from earlier work
[1] = tested on: Streptococcus spp. (S. pneumoniae ATCC 49619, S. pyogenes ATCC 49399, S. agalactiae ATCC 13813); conditions: cited from earlier work
Bacteroides spp. = test: Spontaneous mutation frequency assay; assay type: cell-based
Description: Initial values of the MIC were determined by agar dilution in accordance with guidelines from the Clinical and Laboratory Standards Institute (CLSI; (1) “Methods for Dilution Antimicrobial Susceptibility Tests for Bacteria That Grow Aerobically; Approved Standard; 11th ed.,” CLSI standard M07, 2018; (2) “Methods for Antimicrobial Susceptibility Testing of Anaerobic Bacteria; Approved Standard—Eighth Edition,” CLSI document M11-A8, 2012.).
The agar plates were prepared by mixing a ratio of 1.0 mL of concentrated drug to 49.0 mL of the appropriate molten (47° C.) agar; the drug-supplemented agar was mixed, poured into 15-by-150 mm petri dishes and allowed to solidify and dry at room temperature prior to inoculation. […] Each plate was allowed to cool at room temperature for at least 1 hr.
The isolates were streaked onto the appropriate agar medium and incubated for 20 hr (aerobes) or 48 hr (Bacteroides under anaerobic conditions). Using a sterile swab, several well-isolated colonies were removed and resuspended in sterile saline at a heavy cell density. Each plate was inoculated with 0.5 mL of the cell suspension (each test concentration was inoculated in duplicate). The target inoculum for each spontaneous mutation plate was 10^9-10 CFU. In addition, a portion of the inoculum from each isolate was enumerated by making dilutions, spreading on agar and counting colonies.
Once the inoculum was absorbed into the agar, the plates were incubated at 35° C. Aerobes were examined at 24 and 48 hr, and resulting colonies were counted. Bacteroides were incubated anaerobically for 48-72 hr in the anaerobe chamber and colonies were counted.
Colony counts from plates used to enumerate the initial inoculum density and from the resulting spontaneous mutation frequency test plates were determined. The inoculum size was calculated as CFU inoculated per plate. The spontaneous mutation frequency was calculated using the counts from duplicate spontaneous mutation assay test plates as follows:
If there were no colonies on the antibiotic selection plates, the spontaneous mutation frequency was reported as less than the frequency observed with one colony to indicate that the spontaneous mutation frequency was less than the limit of detection (one CFU). […] The mutation prevention concentration (MPC) was reported as the lowest concentration for which no mutants were selected.

[2] = in vivo, cited from earlier work
Klebsiella pneumoniae [3] = conditions: cited from earlier work
Clostridium spp. = conditions: cited from earlier work
[4] = tested on: Bacteroides thetaiotaomicron; conditions: cited from earlier work
Proteus mirabilis = conditions: cited from earlier work
B. ovatus MMX 3503 = test: Time-kill assay; assay type: cell-based, Bacteroides ovatus; conditions: for time-kill kinetics outcome (bactericidal = ≥3 log reduction in CFU per mL): 2×, 4×, 8× MIC, 2, 6, 24, 48 hr
Staphylococcus aureus = conditions: cited from earlier work
Enterobacteriaceae = conditions: cited from earlier work
B. fragilis = test: Spontaneous mutation frequency and mutation prevention concentration (MPC); assay type: cell-based; conditions: B. fragilis ATCC 25285
Excerpt: (§1) As used herein, “spontaneous mutation frequency” refers to the rate at which mutations arise in a bacterium that can lead to resistance to develop to an antimicrobial agent. “Mutation prevention concentration” or “MPC” refers to the lowest concentration of antimicrobial agent above which the selective proliferation of resistant mutants is expected to occur only rarely.

B. ovatus = test: as above; assay type: cell-based; conditions: B. ovatus MMX 3503
Excerpt: as §1

Bacteroides fragilis = conditions: cited from earlier work
Klebsiella pneumoniae [5] = conditions: cited from earlier work; remark: listed apart in the source
Fusobacterium spp = conditions: cited from earlier work
Prevotella spp. = conditions: cited from earlier work
Escherichia coli [6] = conditions: cited from earlier work
Escherichia coli [7] = conditions: cited from earlier work; remark: listed apart in the source
Klebsiella spp. = conditions: cited from earlier work
Bacteroides vulgatus = conditions: cited from earlier work
[8] = rifaximin selection 4X MIC, 1 μg/mL
[9] = rifaximin selection 8X MIC, 2 μg/mL
[10] = rifaximin selection 4X MIC, 2 μg/mL
[11] = rifaximin selection 8X MIC, 4 μg/mL

CO/N=C(\C(=O)N[C@@H]1C(=O)N2C(C(=O)O)=C(CSc3nc(=O)c(=O)[nH]n3C)CS[C@H]12)c1csc(N)n1 [ceftriaxone]
CLSI QC range (MIC) (E. coli ATCC 25922): (0.03-0.12) μg/mL
CLSI QC range (agar MIC) [1]: 0.03 to 0.12 µg/mL
MPC (mutation prevention concentration) (Bacteroides spp.; B. vulgatus ATCC 8482): 32 µg/mL
Spontaneous Mutation Frequency (Bacteroides spp.; B. vulgatus ATCC 8482, 4× the MIC): > 8.69×10^−8
Spontaneous Mutation Frequency (Bacteroides spp.; B. vulgatus ATCC 8482, 8× the MIC): ≤ 1.74×10^−10
Rat oral exposure lower than iv ([2]; 50 mg/kg): mg/kg (200-fold
Rat oral exposure (Dose) ([2]; 50 mg/kg): 0.9 μg*hr/mL at 50
% S (Klebsiella pneumoniae [3]): 67%
MIC50 (Klebsiella pneumoniae [3]): ≤0.25 µg/mL
MIC90 (Klebsiella pneumoniae [3]): >64 µg/mL
% S (Clostridium spp.): 75%
MIC50 (Clostridium spp.): 2 µg/mL (≈ 3.61 µM)
% S [4]: 2%
MIC50 [4]: 32 µg/mL (≈ 57.7 µM)
MIC90 [4]: >32 µg/mL

C[C@@H](O)[C@H]1C(=O)N2C(C(=O)O)=C(S[C@@H]3CN[C@H](C(=O)N(C)C)C3)[C@H](C)[C@H]12 [meropenem]
CLSI QC range (MIC) (E. coli ATCC 25922): (0.008-0.06)^1 μg/mL
% S (Proteus mirabilis): 95.5%
MIC50 (Proteus mirabilis): 0.12 µg/mL (≈ 0.313 µM)
MIC90 (Proteus mirabilis): 0.25 µg/mL (≈ 0.652 µM)
MIC range (Proteus mirabilis): 0.12 to 16 µg/mL
time-kill kinetics outcome (bactericidal = ≥3 log reduction in CFU per mL) (B. ovatus MMX 3503): bactericidal at 8×MIC at 6, 24 and 48 hr; at 4×MIC at 24 and 48 hr; and at 2×MIC at 24 hr with rebound growth at 48 hr
CLSI QC range (agar MIC) [1]: 0.03 to 0.25 µg/mL
colonies on selection plates (Bacteroides spp.): No Streptococcus spp. or Bacteroides spp. colonies were selected
MIC50 (Staphylococcus aureus): ≤0.12 µg/mL
MIC90 (Staphylococcus aureus): 4 µg/mL (≈ 10.4 µM)
Rat oral exposure (Dose) [2]: ~4%
% S (Enterobacteriaceae): 97.2%
MIC50 (Enterobacteriaceae): 0.03 µg/mL (≈ 0.0782 µM)
MIC90 (Enterobacteriaceae): 0.12 µg/mL (≈ 0.313 µM)
MPC (B. fragilis): 0.5 µg/mL
Average Count (B. fragilis; selection 4X MIC, 0.5 μg/mL): 0 CFU
Count 1 (B. fragilis; selection 4X MIC, 0.5 μg/mL): 0 CFU
Count 2 (B. fragilis; selection 4X MIC, 0.5 μg/mL): 0 CFU
Spontaneous Mutation Frequency (B. fragilis; selection 4X MIC, 0.5 μg/mL): ≤1.48 × 10^−10
Average Count (B. fragilis; selection 8X MIC, 1 μg/mL): 0 CFU
Count 1 (B. fragilis; selection 8X MIC, 1 μg/mL): 0 CFU
Count 2 (B. fragilis; selection 8X MIC, 1 μg/mL): 0 CFU
Spontaneous Mutation Frequency (B. fragilis; selection 8X MIC, 1 μg/mL): ≤1.48 × 10^−10
MPC (B. ovatus): 0.5 µg/mL
Average Count (B. ovatus; selection 4X MIC, 0.5 μg/mL): 0 CFU
Count 1 (B. ovatus; selection 4X MIC, 0.5 μg/mL): 0 CFU
Count 2 (B. ovatus; selection 4X MIC, 0.5 μg/mL): 0 CFU
Spontaneous Mutation Frequency (B. ovatus; selection 4X MIC, 0.5 μg/mL): ≤1.05 × 10^−10
Average Count (B. ovatus; selection 8X MIC, 1 μg/mL): 0 CFU
Count 1 (B. ovatus; selection 8X MIC, 1 μg/mL): 0 CFU
Count 2 (B. ovatus; selection 8X MIC, 1 μg/mL): 0 CFU
Spontaneous Mutation Frequency (B. ovatus; selection 8X MIC, 1 μg/mL): ≤1.05 × 10^−10
% S (Bacteroides fragilis): 94.5%
MIC50 (Bacteroides fragilis): 0.25 µg/mL (≈ 0.652 µM)
MIC90 (Bacteroides fragilis): 4 µg/mL (≈ 10.4 µM)
% S (Klebsiella pneumoniae [5]): 38.3%
MIC50 (Klebsiella pneumoniae [5]): 8 µg/mL (≈ 20.9 µM)
MIC90 (Klebsiella pneumoniae [5]): 64 µg/mL (≈ 167 µM)
% S (Fusobacterium spp): 100%
MIC50 (Fusobacterium spp): 0.125 µg/mL (≈ 0.326 µM)
MIC90 (Fusobacterium spp): 0.25 µg/mL (≈ 0.652 µM)
MIC range (Fusobacterium spp): ≤0.03 to 0.5 µg/mL

CO[C@H]1/C=C/O[C@@]2(C)Oc3c(C)c(O)c4c(O)c(c5c(nc6cc(C)ccn65)c4c3C2=O)NC(=O)/C(C)=C\C=C\[C@H](C)[C@H](O)[C@@H](C)[C@@H](O)[C@@H](C)[C@H](OC(C)=O)[C@@H]1C [rifaximin]
MIC50 (Prevotella spp.): 0.25 µg/mL (≈ 0.318 µM)
MIC90 (Prevotella spp.): 0.5 µg/mL (≈ 0.636 µM)
MIC range (Prevotella spp.): 0.25 to 1 µg/mL
MIC50 (Escherichia coli [6]): 32 µg/mL (≈ 40.7 µM)
MIC90 (Escherichia coli [6]): 128 µg/mL (≈ 163 µM)
time-kill kinetics outcome (bactericidal = ≥3 log reduction in CFU per mL) (B. ovatus MMX 3503): rebounded to no-drug control levels at later time points
rapid killing (B. ovatus MMX 3503; 6 hr): ~2 log10 CFU
% S (Escherichia coli [7]): 85.4%
MIC50 (Escherichia coli [7]): 16 µg/mL (≈ 20.4 µM)
MIC90 (Escherichia coli [7]): 64 µg/mL (≈ 81.4 µM)
MIC range (Escherichia coli [7]): 4 to 64 µg/mL
% S (Klebsiella spp.): 43.6%
MIC50 (Klebsiella spp.): 64 µg/mL (≈ 81.4 µM)
MIC90 (Klebsiella spp.): 128 µg/mL (≈ 163 µM)
MIC range (Klebsiella spp.): 8 to 128 µg/mL
MFC (B. fragilis): >2 µg/mL
Average Count (B. fragilis; [8]): 11 CFU
Count 1 (B. fragilis; [8]): 12 CFU
Count 2 (B. fragilis; [8]): 10 CFU
Spontaneous Mutation Frequency (B. fragilis; [8]): 1.63 × 10^−9
Average Count (B. fragilis; [9]): 8 CFU
Count 1 (B. fragilis; [9]): 6 CFU
Count 2 (B. fragilis; [9]): 9 CFU
Spontaneous Mutation Frequency (B. fragilis; [9]): 1.19 × 10^−9
MFC (B. ovatus): >4 µg/mL
Average Count (B. ovatus; [10]): 34 CFU
Count 1 (B. ovatus; [10]): 31 CFU
Count 2 (B. ovatus; [10]): 37 CFU
Spontaneous Mutation Frequency (B. ovatus; [10]): 3.58 × 10^−9
Average Count (B. ovatus; [11]): 27 CFU
Count 1 (B. ovatus; [11]): 28 CFU
Count 2 (B. ovatus; [11]): 25 CFU
Spontaneous Mutation Frequency (B. ovatus; [11]): 2.84 × 10^−9
MIC50 (Bacteroides vulgatus): 0.25 µg/mL (≈ 0.318 µM)
MIC90 (Bacteroides vulgatus): 0.5 µg/mL (≈ 0.636 µM)
MIC range (Bacteroides vulgatus): 0.25 to 4 µg/mL
